Measured values reported in patent publication US20250136576A1, “Heterocyclic Compounds and Uses Thereof” (ACEA Therapeutics, Inc., priority 2021, published 2025).

Test system: KM12-luc cells
Test: Cell proliferation and growth inhibition assay (CCK-8) in KM12-luc
Assay type: cell-based
Conditions: KM12-Luc, 72 h, KM12-luc cells, treated with test compounds for 72 hrs, CCK-8 viability; read-out: NTRK IC50 in KM12-luc
Method in brief: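 Cells were grown at 37 °C, 5% CO2 with 10% FBS: MV-4-11 in IMDM, H1975 in RPMI 1640, KM12-luc in DMEM. Viability was read by CCK-8 (1-4 hrs reagent incubation, absorbance at OD450). IC50 came from a non-linear sigmoidal dose-response fit.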

| SMILES | IC50 |
| --- | --- |
| CCN(C(=O)CN(C)C)c1ccc(Nc2ncc(Cl)c(-c3c[nH]c4ccccc34)n2)cc1N [Compound 448, N-(2-amino-4-((5-chloro-4-(1H-indol-3-yl)pyrimidin-2-yl)amino)phenyl)-2-(dimethylamino)-N-ethylacetamide] | > 1000 nM |
| CCN(CCN(C)C)c1ccc(Nc2nc(-c3c[nH]c4ccccc34)ncc2C(F)(F)F)cc1NC(C)=O [Compound 300b, N-(5-((2-(1H-indol-3-yl)-5-(trifluoromethyl)pyrimidin-4-yl)amino)-2-((2-(dimethylamino)ethyl)(ethyl)amino)phenyl)acetamide] | 3680 nM |
| COCCCN(C)c1cc(N2CCN(C)CC2)ccc1C(=O)Nc1c[nH]c2ccc(Nc3cc(F)cc(F)c3)cc12 [Compound 501, N-(5-((3,5-difluorophenyl)amino)-1H-indol-3-yl)-2-((3-methoxypropyl)(methyl)amino)-4-(4-methylpiperazin-1-yl)benzamide] | > 1000 nM |
| CCN(CCN(C)C)c1c(F)cc(Nc2nc3c(c(-c4cn(C)c5ccccc45)n2)COCC3)cc1NC(C)=O [Compound 257d, N-(2-((2-(dimethylamino)ethyl)(ethyl)amino)-3-fluoro-5-((4-(1-methyl-1H-indol-3-yl)-7,8-dihydro-5H-pyrano[4,3-d]pyrimidin-2-yl)amino)phenyl)acetamide] | > 10000 nM |
| CC(=O)Nc1cc(Nc2ncc(Cl)c(-c3cn(C)c4ccccc34)n2)cc(F)c1N1CCC(N(C)C)C1 (centres unmarked) [Compound 401, N-(5-((5-chloro-4-(1-methyl-1H-indol-3-yl)pyrimidin-2-yl)amino)-2-(3-(dimethylamino)pyrrolidin-1-yl)-3-fluorophenyl)acetamide] | 49.5 nM |
| CN(C)[C@@H]1CCN(c2ccc(Nc3ncc(C(F)(F)F)c(-c4c[nH]c5c(F)cccc45)n3)cc2N)C1 [Compound R-345, (R)-4-(3-(dimethylamino)pyrrolidin-1-yl)-N^1-(4-(7-fluoro-1H-indol-3-yl)-5-(trifluoromethyl)pyrimidin-2-yl)benzene-1,3-diamine] | 6.2 nM |
| COc1cnc(Nc2ccc(OCCN(C)C)c(NC(C)=O)c2)nc1-c1c[nH]c2c(F)cccc12 [Compound 279, N-(2-(2-(dimethylamino)ethoxy)-5-((4-(7-fluoro-1H-indol-3-yl)-5-methoxypyrimidin-2-yl)amino)phenyl)acetamide] | 52.6 nM |
| CN(C)CCN(C)c1ccc(Nc2ncc(Cl)c(-c3c[nH]c4c(F)cccc34)n2)cc1N [Compound 411, N^4-(5-chloro-4-(7-fluoro-1H-indol-3-yl)pyrimidin-2-yl)-N^1-(2-(dimethylamino)ethyl)-N^1-methylbenzene-1,2,4-triamine] | 12.8 nM |
| CN(C)CCN(C)c1ccc(C(=O)Nc2c[nH]c3cnc(Nc4cc(F)cc(F)c4)nc23)c(NC2CCOCC2)c1 [Compound 493, N-(2-((3,5-difluorophenyl)amino)-5H-pyrrolo[3,2-d]pyrimidin-7-yl)-4-((2-(dimethylamino)ethyl)(methyl)amino)-2-((tetrahydro-2H-pyran-4-yl)amino)benzamide] | > 10000 nM |
| COc1cccc2c(-c3nc(Nc4ccc(OCCN(C)C)c(NC(C)=O)c4)ncc3C(F)(F)F)cn(C)c12 [Compound 388, N-(2-(2-(dimethylamino)ethoxy)-5-((4-(7-methoxy-1-methyl-1H-indol-3-yl)-5-(trifluoromethyl)pyrimidin-2-yl)amino)phenyl)acetamide] | 44.8 nM |
| COc1cccc2c(-c3nc(Nc4ccc(N(C)CCN(C)C)c(N)c4)ncc3C(F)(F)F)cn(C)c12 [Compound 385, N^1-(2-(dimethylamino)ethyl)-N^4-(4-(7-methoxy-1-methyl-1H-indol-3-yl)-5-(trifluoromethyl)pyrimidin-2-yl)-N^1-methylbenzene-1,2,4-triamine] | 45.3 nM |
| CN(C)CCN(C)c1ccc(C(=O)Nc2c[nH]c3ccc(Cc4cc(F)cc(F)c4)cc23)c(NC2CCOCC2)c1 [Compound 507, N-(5-(3,5-difluorobenzyl)-1H-indol-3-yl)-4-(2-(dimethylamino)ethyl)(methylamino)-2-((tetrahydro-2H-pyran-4-yl)amino) benzamide] | > 1000 nM |
| CCC(=O)Nc1cccc(Nc2ncc(Cl)c(Nc3ccc(C4CCCN(C(C)=O)C4)cc3OC)n2)c1 (centres unmarked) [Compound 165, N-(3-((4-((4-(1-acetylpiperidin-3-yl)-2-methoxyphenyl)amino)-5-chloropyrimidin-2-yl)amino)phenyl)propionamide] | 171 nM |
| CCC(=O)Nc1cc(Nc2ncc(C(F)(F)F)c(-c3c[nH]c4ccccc34)n2)ccc1N(CC)CCN(C)C [Compound 302, N-(5-((4-(1H-indol-3-yl)-5-(trifluoromethyl)pyrimidin-2-yl)amino)-2-((2-(dimethylamino)ethyl)(ethyl)amino)phenyl)propionamide] | 96.8 nM |
| CN(C)[C@H]1CCN(c2ccc(Nc3ncc(C(F)(F)F)c(-c4c[nH]c5c(F)cccc45)n3)cc2N)C1 [Compound S-345, (S)-4-(3-(dimethylamino)pyrrolidin-1-yl)-N^1-(4-(7-fluoro-1H-indol-3-yl)-5-(trifluoromethyl)pyrimidin-2-yl)benzene-1,3-diamine] | 8.2 nM |
| CC(=O)Nc1cc(Nc2nc3c(c(-c4cn(C)c5ccccc45)n2)CCO3)ccc1N(C)CCN(C)C [Compound 258a, N-(2-((2-(dimethylamino)ethyl)(methyl)amino)-5-((4-(1-methyl-1H-indol-3-yl)-5,6-dihydrofuro[2,3-d]pyrimidin-2-yl)amino)phenyl)acetamide] | > 1000 nM |
| CC(=O)Nc1cc(Nc2ncc(C(F)(F)F)c(-c3c[nH]c4cc(F)ccc34)n2)ccc1N(C)CCN(C)C [Compound 328a, N-(2-((2-(dimethylamino)ethyl)(methyl)amino)-5-((4-(6-fluoro-1H-indol-3-yl)-5-(trifluoromethyl)pyrimidin-2-yl)amino)phenyl)acetamide] | 34.1 nM |
| CN(C)CCN(C)c1ccc(Nc2ncc(C(F)(F)F)c(-c3c[nH]c4cc(F)ccc34)n2)cc1N [Compound 329, N^1-(2-(dimethylamino)ethyl)-N^4-(4-(6-fluoro-1H-indol-3-yl)-5-(trifluoromethyl)pyrimidin-2-yl)-N^1-methylbenzene-1,2,4-triamine] | 72.1 nM |
| CC(=O)Nc1cc(Nc2nc(-c3cn(C)c4ccccc34)c3c(F)c[nH]c3n2)ccc1N(C)CCN(C)C [Compound 253, N-(2-((2-(dimethylamino)ethyl)(methyl)amino)-5-((5-fluoro-4-(1-methyl-1H-indol-3-yl)-7H-pyrrolo[2,3-d]pyrimidin-2-yl)amino)phenyl)acetamide] | 97.5 nM |
| COc1cnc(Nc2ccc(OCCN(C)C)c(NC(C)=O)c2)nc1-c1c[nH]c2c(OC)cccc12 [Compound 287, N-(2-(2-(dimethylamino)ethoxy)-5-((5-methoxy-4-(7-methoxy-1H-indol-3-yl)pyrimidin-2-yl)amino)phenyl)acetamide] | 21.9 nM |
| CCN(CCN(C)C)c1cc(F)c(Nc2nc(-c3cn(C)c4cccc(F)c34)c3cc[nH]c3n2)cc1NC(C)=O [Compound 222, N-(2-((2-(dimethylamino)ethyl)(ethyl)amino)-4-fluoro-5-((4-(4-fluoro-1-methyl-1H-indol-3-yl)-7H-pyrrolo[2,3-d]pyrimidin-2-yl)amino)phenyl)acetamide] | 1440 nM |
| COc1cnc(Nc2ccc(N3CC[C@@H](N(C)C)C3)c(NC(C)=O)c2)nc1-c1c[nH]c2c(OC)cccc12 [Compound R-288, (R)—N-(2-(3-(dimethylamino)pyrrolidin-1-yl)-5-((5-methoxy-4-(7-methoxy-1H-indol-3-yl)pyrimidin-2-yl)amino)phenyl)acetamide] | 15.5 nM |
| CCN(C(=O)CCN(C)C)c1ccc(Nc2ncc(Cl)c(-c3cn(C)c4ccccc34)n2)cc1NC(C)=O [Compound 406, N-(2-acetamido-4-((5-chloro-4-(1-methyl-1H-indol-3-yl)pyrimidin-2-yl)amino)phenyl)-3-(dimethylamino)-N-ethylpropanamid] | 60.1 nM |
| C=CC(=O)Nc1cc(Nc2nc(-c3cn(C)c4ccccc34)c3cc[nH]c3n2)ccc1N(CC)CCN(C)C [Compound 212a, N-(2-((2-(dimethylamino)ethyl)(ethyl)amino)-5-((4-(1-methyl-1H-indol-3-yl)-7H-pyrrolo[2,3-d]pyrimidin-2-yl)amino)phenyl)acrylamide] | 62.7 nM |
| Cc1nc2cc(Nc3ncc(C(F)(F)F)c(-c4c[nH]c5c(F)cccc45)n3)ccc2n1CCN(C)C [Compound 342, 1-(2-(dimethylamino)ethyl)-N-(4-(7-fluoro-1H-indol-3-yl)-5-(trifluoromethyl)pyrimidin-2-yl)-2-methyl-1H-benzo[d]imidazol-5-amine] | 24.6 nM |
| CC(=O)Nc1cc(Nc2ncc(F)c(-c3cn(C)c4cccc(F)c34)n2)ccc1N(C)CCN(C)C [Compound 264, N-(2-((2-(dimethylamino)ethyl)(methyl)amino)-5-((5-fluoro-4-(4-fluoro-1-methyl-1H-indol-3-yl)pyrimidin-2-yl)amino)phenyl)acetamide] | 1040 nM |
| CC(=O)Nc1cc(Nc2nc(-c3c[nH]c4cc(F)ccc34)ncc2C(F)(F)F)ccc1N(C)CCN(C)C [Compound 328b, N-(2-((2-(dimethylamino)ethyl)(methyl)amino)-5-((2-(6-fluoro-1H-indol-3-yl)-5-(trifluoromethyl)pyrimidin-4-yl)amino)phenyl)acetamide] | 2420 nM |

Same assay, conditions: KM12-Luc, 72 h, read-out: NTRK IC50 in KM12-luc

| SMILES | IC50 |
| --- | --- |
| CC(=O)Nc1cc(Nc2nc(-c3cn(C)c4ccc(F)cc34)c3cc[nH]c3n2)ccc1N(C)CCN(C)C [Compound 227a, N-(2-((2-(dimethylamino)ethyl)(methyl)amino)-5-((4-(5-fluoro-1-methyl-1H-indol-3-yl)-7H-pyrrolo[2,3-d]pyrimidin-2-yl)amino)phenyl)acetamide] | 578 nM |
| CC(=O)Nc1cc(Nc2nc(-c3cn(C)c4ccccc34)c3cc[nH]c3n2)ccc1N(C)CCN(C)C [Compound 205a, N-(2-((2-(dimethylamino)ethyl)(methyl)amino)-5-((4-(1-methyl-1H-indol-3-yl)-7H-pyrrolo[2,3-d]pyrimidin-2-yl)amino)phenyl)acetamide] | 37 nM |
